Columns and labels:
[1] = target: ATP-binding cassette sub-family C member 2 (Rattus norvegicus, UniProt Q63120); assay: TP_TRANSPORTER: inhibition of DNP-SG uptake in bile canalicular membrane vesicles from SD rat; assay type: functional, cell membranes, Sprague-Dawley, Bile canalicular membrane vesicle
[2] = substrate: Nc1nc(N)c2nc(CN3CCSc4cc(C(=O)NC(CCCC(=O)O)C(=O)O)ccc43)cnc2n1; assay: TP_TRANSPORTER: uptake in bile canalicular membrane vesicles from SD rat; assay type: functional, cell membranes, Sprague-Dawley, Bile canalicular membrane vesicle

Ki [1] [µM] | Molecule | Km [2] [µM]
162 | Nc1nc(N)c2nc(CN3CCSc4cc(C(=O)NC(CCCC(=O)O)C(=O)O)ccc43)cnc2n1 (configuration not stated) | –
– | ATP-binding cassette sub-family C member 2 (Rattus norvegicus) (protein) MDKFCNSTFWDLSLLESPEADLPLCFEQTVLVWIPLGFLWLLAPWQLYSVYRSRTKRSSITKFYLAKQVFVVFLLILAAIDLSLALTEDTGQATVPPVRYTNPILYLCTWLLVLAVQHSRQWCVRKNSWFLSLFWILSVLCGVFQFQTLIRALLKDSKSNMAYSYLFFVSYGFQIVLLILTAFSGPSDSTQTPSVTASFLSSITFSWYDRTVLKGYKHPLTLEDVWDIDEGFKTRSVTSKFEAAMTKDLQKARQAFQRRLQKSQRKPEATLHGLNKKQSQSQDVLVLEEAKKKSEKTTKDYPKSWLIKSLFKTFHVVILKSFILKLIHDLLVFLNPQLLKLLIGFVKSSNSYVWFGYICAILMFAVTLIQSFCLQSYFQHCFVLGMCVRTTVMSSIYKKALTLSNLARKQYTIGETVNLMSVDSQKLMDATNYMQLVWSSVIQITLSIFFLWRELGPSILAGVGVMVLLIPVNGVLATKIRNIQVQNMKNKDKRLKIMNEILSGIKILKYFAWEPSFQEQVQGIRKKELKNLLRFGQLQSLLIFILQITPILVSVVTFSVYVLVDSANVLNAEKAFTSITLFNILRFPLSMLPMVTSSILQASVSVDRLERYLGGDDLDTSAIRRVSNFDKAVKFSEASFTWDPDLEATIQDVNLDIKPGQLVAVVGTVGSGKSSLVSAMLGEMENVHGHITIQGSTAYVPQQSWIQNGTIKDNILFGSEYNEKKYQQVLKACALLPDLEILPGGDMAEIGEKGINLSGGQKQRVSLARAAYQDADIYILDDPLSAVDAHVGKHIFNKVVGPNGLLAGKTRIFVTHGIHFLPQVDEIVVLGKGTILEKGSYRDLLDKKGVFARNWKTFMKHSGPEGEATVNNDSEAEDDDDGLIPTMEEIPEDAASLAMRRENSLRRTLSRSSRSSSRRGKSLKNSLKIKNVNVLKEKEKEVEGQKLIKKEFVETGKVKFSIYLKYLQAVGWWSILFIILFYGLNNVAFIGSNLWLSAWTSDSDNLNGTNNSSSHRDMRIGVFGALGLAQGICLLISTLWSIYACRNASKALHGQLLTNILRAPMRFFDTTPTGRIVNRFSGDISTVDDLLPQTLRSWMMCFFGIAGTLVMICMATPVFAIIIIPLSILYISVQVFYVATSRQLRRLDSVTKSPIYSHFSETVTGLPIIRAFEHQQRFLAWNEKQIDINQKCVFSWITSNRWLAIRLELVGNLVVFCSALLLVIYRKTLTGDVVGFVLSNALNITQTLNWLVRMTSEAETNIVAVERISEYINVENEAPWVTDKRPPADWPRHGEIQFNNYQVRYRPELDLVLKGITCNIKSGEKVGVVGRTGAGKSSLTNCLFRILESAGGQIIIDGIDVASIGLHDLRERLTIIPQDPILFSGSLRMNLDPFNKYSDEEVWRALELAHLRSFVSGLQLGLLSEVTEGGDNLSIGQRQLLCLGRAVLRKSKILVLDEATAAVDLETDSLIQTTIRKEFSQCTVITIAHRLHTIMDSDKIMVLDNGKIVEYGSPEELLSNRGSFYLMAKEAGIENVNHTEL | 207
